Results on two compounds are retold here after patent publication US10717737B2, “Cyclopropylamines as LSD1 inhibitors” (Incyte Corporation, priority 2014, dated 2020).

This assay addresses LSD1 (Homo sapiens (Human), UniProt O60341). The experiment in a line: biochemical.

By IC50 is commonly meant the concentration that inhibits the measured activity by half. A high value points to lower potency.

Method: LANCE LSD1/KDM1A demethylase assay—10 μL of 1 nM LSD-1 enzyme (ENZO BML-SE544-0050) in the assay buffer (50 mM Tris, pH 7.5, 0.01% Tween-20, 25 mM NaCl, 5 mM DTT) were preincubated for 1 hour at 25° C. with 0.8 μL compound/DMSO dotted in black 384 well polystyrene plates. […] After stopping the reactions plates were incubated for 30 minutes and read on a PHERAstar FS plate reader (BMG Labtech).

As to `N#Cc1ccc(CC2(CN[C@@H]3C[C@H]3c3ccccc3)CCN(CC3(C(=O)O)CC3)CC2)c(F)c1` [Example 74, 1-{[4-(4-cyano-2-fluorobenzyl)-4-({[(1R,2S)-2-phenylcyclopropyl]amino}methyl)piperidin-1-yl]methyl}cyclopropanecarboxylic Acid], the IC50 was less than 100 nM.

The compound `COCC1(CN[C@@H]2C[C@H]2c2ccccc2)CCN(C(=O)N2CCC(O)CC2)CC1` [Example 112, 1-{[4-(methoxymethyl)-4-({[(1R,2S)-2-phenylcyclopropyl]amino}methyl)piperidin-1-yl]carbonyl}piperidin-4-ol] returned an IC50 of less than 100 nM.
